# Test results taken from US20260078103A1, “ISOQUINOLONES AS PI3K INHIBITORS” (OnKure, Inc., priority 2022, published 2026).
# Tested on: T47D cells expressing mutant PI3Ka (H1047R)
# Experiment: In vitro cell proliferation, T47D cells (CellTiter-Glo)
# Format: cell-based
# Conditions: Homo sapiens, T47D, 72 h, inhibition of proliferation, read-out: Avg T-47D EC50
# Summary of the method: (§1)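 1,500 cells/well seeded onto pre-stamped 10-pt dilution plates; T47D in RPMI + 10% FBS + insulin 0.2 units/mL, SKBR3 in McCoys 5a + 10% FBS. 72 h, 37 °C, 5% CO2. CTG readout. 0% = 0.1% DMSO, 100% = 10 uM Alpelisib; sigmoidal fit gives EC50.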
row,Structure (SMILES),EC50 [nM]
1,Cc1cc([C@@H](C)Nc2ccccc2C(=O)O)c2cc(N3CC(C)(c4ccccc4)C3)n(C)c(=O)c2c1 [Example 179],1 to 500
2,COC1CN(c2cc3c([C@@H](C)Nc4ccccc4C(=O)O)cc(C)cc3c(=O)n2C)C1 [Example 180],1 to 500
3,Cc1cc([C@@H](C)Nc2ccccc2C(=O)O)c2cc(N3CC4(CN(CC(F)(F)F)C4)C3)n(C)c(=O)c2c1 [Example 184],500 to 2000
4,Cc1cc([C@@H](C)Nc2ccccc2C(=O)O)c2cc(N3CCC4(CN(CC(F)(F)F)C4)C3)n(C)c(=O)c2c1 [Example 185],1 to 500
5,Cc1cc([C@@H](C)Nc2ccccc2C(=O)O)c2cc(N3CCN(c4ccccn4)CC3)n(C)c(=O)c2c1 [Example 186],1 to 500
6,Cc1cc([C@@H](C)Nc2ccccc2C(=O)O)c2cc(N3CCN(c4ccnc(C)n4)CC3)n(C)c(=O)c2c1 [Example 187],1 to 500
7,Cc1cc([C@@H](C)Nc2ccccc2C(=O)O)c2cc(N3CCN(c4cccnc4C#N)CC3)n(C)c(=O)c2c1 [Example 188],1 to 500
8,Cc1cc([C@@H](C)Nc2ccccc2C(=O)O)c2cc(-c3ccc(OC(F)F)nc3)n(C)c(=O)c2c1 [Example 189],1 to 500
9,Cc1cc([C@@H](C)Nc2ccccc2C(=O)O)c2cc(N3CC(F)(c4cccnc4)C3)n(C)c(=O)c2c1 [Example 192],1 to 500
10,COCC1CN(c2cc3c([C@@H](C)Nc4ccccc4C(=O)O)cc(C)cc3c(=O)n2C)C1 [Example 193],500 to 2000
11,Cc1cc([C@@H](C)Nc2ccccc2C(=O)O)c2cc(N3CCN(c4ccccc4C#N)CC3)n(C)c(=O)c2c1 [Example 197],1 to 500
12,Cc1cc([C@@H](C)Nc2ccccc2C(=O)O)c2cc(N3CCN(c4ncnn4C)CC3)n(C)c(=O)c2c1 [Example 198],500 to 2000
13,Cc1cc([C@@H](C)Nc2ccccc2C(=O)O)c2cc(N3CCN(c4ncccc4C#N)CC3)n(C)c(=O)c2c1 [Example 199],1 to 500
14,Cc1cc([C@@H](C)Nc2ccccc2C(=O)O)c2cc(N3CCN(Cc4cnn(C)c4)CC3)n(C)c(=O)c2c1 [Example 200],500 to 2000
15,Cc1cc([C@@H](C)Nc2ccccc2C(=O)O)c2cc(-c3ccc(OCC(F)F)nc3)n(C)c(=O)c2c1 [Example 201],1 to 500
16,Cc1cc([C@@H](C)Nc2ccccc2C(=O)O)c2cc(N3CCN(C(=O)OC4CC4)CC3)n(C)c(=O)c2c1 [Example 203],1 to 500

# Tested on: SKBR3 cells express WT PI3Ka
# Experiment: In vitro cell proliferation, SKBR3 cells (CellTiter-Glo)
# Format: cell-based
# Conditions: Homo sapiens, SK-BR-3, 72 h, inhibition of proliferation
# Summary of the method: as §1
row,Structure (SMILES),EC50 [nM]
1,Cc1cc([C@@H](C)Nc2ccccc2C(=O)O)c2cc(N3CC(C)(c4ccccc4)C3)n(C)c(=O)c2c1 [Example 179],> 15000
2,COC1CN(c2cc3c([C@@H](C)Nc4ccccc4C(=O)O)cc(C)cc3c(=O)n2C)C1 [Example 180],> 15000
3,Cc1cc([C@@H](C)Nc2ccccc2C(=O)O)c2cc(N3CC4(CN(CC(F)(F)F)C4)C3)n(C)c(=O)c2c1 [Example 184],> 15000
4,Cc1cc([C@@H](C)Nc2ccccc2C(=O)O)c2cc(N3CCC4(CN(CC(F)(F)F)C4)C3)n(C)c(=O)c2c1 [Example 185],> 15000
5,Cc1cc([C@@H](C)Nc2ccccc2C(=O)O)c2cc(N3CCN(c4ccccn4)CC3)n(C)c(=O)c2c1 [Example 186],2000 to 15000
6,Cc1cc([C@@H](C)Nc2ccccc2C(=O)O)c2cc(N3CCN(c4ccnc(C)n4)CC3)n(C)c(=O)c2c1 [Example 187],2000 to 15000
7,Cc1cc([C@@H](C)Nc2ccccc2C(=O)O)c2cc(N3CCN(c4cccnc4C#N)CC3)n(C)c(=O)c2c1 [Example 188],2000 to 15000
8,Cc1cc([C@@H](C)Nc2ccccc2C(=O)O)c2cc(-c3ccc(OC(F)F)nc3)n(C)c(=O)c2c1 [Example 189],> 15000
9,Cc1cc([C@@H](C)Nc2ccccc2C(=O)O)c2cc(N3CC(F)(c4cccnc4)C3)n(C)c(=O)c2c1 [Example 192],> 15000
10,COCC1CN(c2cc3c([C@@H](C)Nc4ccccc4C(=O)O)cc(C)cc3c(=O)n2C)C1 [Example 193],> 15000
11,Cc1cc([C@@H](C)Nc2ccccc2C(=O)O)c2cc(N3CCN(c4ccccc4C#N)CC3)n(C)c(=O)c2c1 [Example 197],> 15000
12,Cc1cc([C@@H](C)Nc2ccccc2C(=O)O)c2cc(N3CCN(c4ncnn4C)CC3)n(C)c(=O)c2c1 [Example 198],> 15000
13,Cc1cc([C@@H](C)Nc2ccccc2C(=O)O)c2cc(N3CCN(c4ncccc4C#N)CC3)n(C)c(=O)c2c1 [Example 199],2000 to 15000
14,Cc1cc([C@@H](C)Nc2ccccc2C(=O)O)c2cc(N3CCN(Cc4cnn(C)c4)CC3)n(C)c(=O)c2c1 [Example 200],> 15000
15,Cc1cc([C@@H](C)Nc2ccccc2C(=O)O)c2cc(-c3ccc(OCC(F)F)nc3)n(C)c(=O)c2c1 [Example 201],> 15000
16,Cc1cc([C@@H](C)Nc2ccccc2C(=O)O)c2cc(N3CCN(C(=O)OC4CC4)CC3)n(C)c(=O)c2c1 [Example 203],> 15000

# Tested on: phosphorylation of AKT (pAKT) in T47D cells expressing mutant PI3Ka (H1047R)
# Experiment: In vitro cell pAKT (Ser473) HTRF, T47D cells
# Format: cell-based
# Conditions: Homo sapiens, T47D, 6 h, cellular pAKT, T47D cells, mutant PI3Ka (H1047R), 6 hours; read-out: Avg T-47D IC50
# Summary of the method: (§2)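 pAKT (Ser473) was quantified by HTRF in lysates from cells exposed 6 h at 37 °C to 10-point compound series, with T47D in insulin-supplemented RPMI/10% FBS and SKBR3 in McCoy's 5a/10% FBS. Controls: 0.1% DMSO (high) and 10 uM alpelisib (low). IC50 from sigmoidal curve fitting.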
row,Structure (SMILES),IC50 [nM]
1,Cc1cc([C@@H](C)Nc2ccccc2C(=O)O)c2cc(N3CC(C)(c4ccccc4)C3)n(C)c(=O)c2c1 [Example 179],1 to 500
2,COC1CN(c2cc3c([C@@H](C)Nc4ccccc4C(=O)O)cc(C)cc3c(=O)n2C)C1 [Example 180],1 to 500
3,Cc1cc([C@@H](C)Nc2ccccc2C(=O)O)c2cc(N3CC4(CN(CC(F)(F)F)C4)C3)n(C)c(=O)c2c1 [Example 184],1 to 500
4,Cc1cc([C@@H](C)Nc2ccccc2C(=O)O)c2cc(N3CCC4(CN(CC(F)(F)F)C4)C3)n(C)c(=O)c2c1 [Example 185],1 to 500
5,Cc1cc([C@@H](C)Nc2ccccc2C(=O)O)c2cc(N3CCN(c4ccccn4)CC3)n(C)c(=O)c2c1 [Example 186],1 to 500
6,Cc1cc([C@@H](C)Nc2ccccc2C(=O)O)c2cc(N3CCN(c4ccnc(C)n4)CC3)n(C)c(=O)c2c1 [Example 187],1 to 500
7,Cc1cc([C@@H](C)Nc2ccccc2C(=O)O)c2cc(N3CCN(c4cccnc4C#N)CC3)n(C)c(=O)c2c1 [Example 188],1 to 500
8,Cc1cc([C@@H](C)Nc2ccccc2C(=O)O)c2cc(-c3ccc(OC(F)F)nc3)n(C)c(=O)c2c1 [Example 189],1 to 500
9,Cc1cc([C@@H](C)Nc2ccccc2C(=O)O)c2cc(N3CC(F)(c4cccnc4)C3)n(C)c(=O)c2c1 [Example 192],1 to 500
10,COCC1CN(c2cc3c([C@@H](C)Nc4ccccc4C(=O)O)cc(C)cc3c(=O)n2C)C1 [Example 193],1 to 500
11,Cc1cc([C@@H](C)Nc2ccccc2C(=O)O)c2cc(N3CCN(c4ccccc4C#N)CC3)n(C)c(=O)c2c1 [Example 197],1 to 500
12,Cc1cc([C@@H](C)Nc2ccccc2C(=O)O)c2cc(N3CCN(c4ncnn4C)CC3)n(C)c(=O)c2c1 [Example 198],500 to 2000
13,Cc1cc([C@@H](C)Nc2ccccc2C(=O)O)c2cc(N3CCN(c4ncccc4C#N)CC3)n(C)c(=O)c2c1 [Example 199],1 to 500
14,Cc1cc([C@@H](C)Nc2ccccc2C(=O)O)c2cc(N3CCN(Cc4cnn(C)c4)CC3)n(C)c(=O)c2c1 [Example 200],500 to 2000
15,Cc1cc([C@@H](C)Nc2ccccc2C(=O)O)c2cc(-c3ccc(OCC(F)F)nc3)n(C)c(=O)c2c1 [Example 201],1 to 500
16,Cc1cc([C@@H](C)Nc2ccccc2C(=O)O)c2cc(N3CCN(C(=O)OC4CC4)CC3)n(C)c(=O)c2c1 [Example 203],1 to 500

# Tested on: phosphorylation of AKT (pAKT) in SKBR3 cells express WT PI3Ka
# Experiment: In vitro cell pAKT (Ser473) HTRF, SKBR3 cells
# Format: cell-based
# Conditions: Homo sapiens, SK-BR-3, 6 h, cellular pAKT
# Summary of the method: as §2
row,Structure (SMILES),IC50 [nM]
1,Cc1cc([C@@H](C)Nc2ccccc2C(=O)O)c2cc(N3CC(C)(c4ccccc4)C3)n(C)c(=O)c2c1 [Example 179],> 15000
2,COC1CN(c2cc3c([C@@H](C)Nc4ccccc4C(=O)O)cc(C)cc3c(=O)n2C)C1 [Example 180],> 15000
3,Cc1cc([C@@H](C)Nc2ccccc2C(=O)O)c2cc(N3CC4(CN(CC(F)(F)F)C4)C3)n(C)c(=O)c2c1 [Example 184],> 15000
4,Cc1cc([C@@H](C)Nc2ccccc2C(=O)O)c2cc(N3CCC4(CN(CC(F)(F)F)C4)C3)n(C)c(=O)c2c1 [Example 185],2000 to 15000
5,Cc1cc([C@@H](C)Nc2ccccc2C(=O)O)c2cc(N3CCN(c4ccccn4)CC3)n(C)c(=O)c2c1 [Example 186],2000 to 15000
6,Cc1cc([C@@H](C)Nc2ccccc2C(=O)O)c2cc(N3CCN(c4ccnc(C)n4)CC3)n(C)c(=O)c2c1 [Example 187],> 15000
7,Cc1cc([C@@H](C)Nc2ccccc2C(=O)O)c2cc(N3CCN(c4cccnc4C#N)CC3)n(C)c(=O)c2c1 [Example 188],500 to 2000
8,Cc1cc([C@@H](C)Nc2ccccc2C(=O)O)c2cc(-c3ccc(OC(F)F)nc3)n(C)c(=O)c2c1 [Example 189],> 15000
9,Cc1cc([C@@H](C)Nc2ccccc2C(=O)O)c2cc(N3CC(F)(c4cccnc4)C3)n(C)c(=O)c2c1 [Example 192],> 15000
10,COCC1CN(c2cc3c([C@@H](C)Nc4ccccc4C(=O)O)cc(C)cc3c(=O)n2C)C1 [Example 193],> 15000
11,Cc1cc([C@@H](C)Nc2ccccc2C(=O)O)c2cc(N3CCN(c4ccccc4C#N)CC3)n(C)c(=O)c2c1 [Example 197],2000 to 15000
12,Cc1cc([C@@H](C)Nc2ccccc2C(=O)O)c2cc(N3CCN(c4ncnn4C)CC3)n(C)c(=O)c2c1 [Example 198],> 15000
13,Cc1cc([C@@H](C)Nc2ccccc2C(=O)O)c2cc(N3CCN(c4ncccc4C#N)CC3)n(C)c(=O)c2c1 [Example 199],2000 to 15000
14,Cc1cc([C@@H](C)Nc2ccccc2C(=O)O)c2cc(N3CCN(Cc4cnn(C)c4)CC3)n(C)c(=O)c2c1 [Example 200],> 15000
15,Cc1cc([C@@H](C)Nc2ccccc2C(=O)O)c2cc(-c3ccc(OCC(F)F)nc3)n(C)c(=O)c2c1 [Example 201],> 15000
16,Cc1cc([C@@H](C)Nc2ccccc2C(=O)O)c2cc(N3CCN(C(=O)OC4CC4)CC3)n(C)c(=O)c2c1 [Example 203],> 15000
